Earlier results in US20220226307A1, “INHIBITION OF BETA-2 NICOTINIC ACETYLCHOLINE RECEPTORS TO TREAT ALZHEIMER'S DISEASE PATHOLOGY” (INSTITUT PASTEUR, priority 2016, published 2022).

Tested on: ventral hippocampus alpha-7 nAChR and alpha-4 beta-2 nAChR
Settings: local infusion in ventral hippocampus (Felix and Levin, 1997; Levin et al., 2002)

SMILES | working memory
Br.CO[C@H]1CC=C2CCN3CCC4=C(CC(=O)OC4)[C@]23C1 [DHβE, dihydro-β-erythroidine hydrobromide] | induces working memory impairments
CCN1C[C@]2(COC(=O)c3ccccc3N3C(=O)C[C@H](C)C3=O)CC[C@H](OC)[C@@]34[C@@H]5C[C@H]6[C@H](OC)[C@@H]5[C@](O)(C[C@@H]6OC)[C@@](O)([C@@H](OC)[C@H]23)[C@@H]14 [MLA, methyllycaconitine] | induces working memory impairments
